In ChEMBL document CHEMBL2069304, “Indole alkaloids from two cultured cyanobacteria, Westiellopsis sp. and Fischerella muscicola” (Bioorg Med Chem, 2012):
Values after ≈ are worked out from the molar mass of the structure shown. Active and inactive are the calls of the source. No cut-off for these calls is given here.

Experiments:
Staphylococcus aureus = test: Antimicrobial activity against Staphylococcus aureus by broth microdilution assay; format: functional
[1] = tested on: Mycolicibacterium smegmatis; test: Antimicrobial activity against Mycobacterium smegmatis by broth microdilution assay; format: functional
MCF7 = test: Cytotoxicity against human MCF7 cells incubated for 3 days by SRB assay; format: functional, cell-based; conditions: MCF7, 72 h
[2] = tested on: Mycobacterium tuberculosis; test: microbe, parasite or virus in culture; conditions: H37Rv
Description: Antimicrobial activity against Mycobacterium tuberculosis H37Rv by microplate Alamar blue assay

NCI-H460 = test: Cytotoxicity against human NCI-H460 cells incubated for 3 days by SRB assay; format: functional, cell-based; conditions: NCI-H460, 72 h
Candida albicans = test: Antimicrobial activity against Candida albicans by broth microdilution assay; format: functional
SF-268 = test: Cytotoxicity against human SF268 cells incubated for 3 days by SRB assay; format: functional, cell-based; conditions: SF-268, 72 h
IMR-90 = test: Cytotoxicity against human IMR90 cells incubated for 3 days by SRB assay; format: cell-based; conditions: IMR-90, 72 h
HT-29 = test: Cytotoxicity against human HT-29 cells by CellTiter 96 Aqueous One solution cell proliferation assay; format: functional, cell-based
Escherichia coli = test: Antimicrobial activity against Escherichia coli by broth microdilution assay; format: functional
Acinetobacter baumannii = test: Antimicrobial activity against Acinetobacter baumannii by broth microdilution assay; format: functional
Vero = test: Cytotoxicity against african green monkey Vero cells by CellTiter 96 aqueous nonradioactive cell proliferation assay; format: cell-based; conditions: Chlorocebus sabaeus
Homo sapiens = species on record: Homo sapiens; test: Inhibition of 20S proteasome at 25 ug/ml
[3] = Homo sapiens, HT-29, read-out: IC50

[C-]#[N+][C@H]1C(=C)[C@@H](C=C)C[C@@H]2[C@@H]1c1c[nH]c3cccc(c13)C2(C)C (relative stereo)
MIC (Staphylococcus aureus): 9.1 µM (≈ 2.75 µg/mL) | MIC [1]: 78.8 µM (≈ 23.8 µg/mL) | IC50 (MCF7): 35.4 µM | MIC [2]: 2.5 µM (≈ 0.756 µg/mL) | IC50 (NCI-H460): 23 µM | MIC (Candida albicans): 2.5 µM (≈ 0.756 µg/mL) | IC50 (SF-268): 23.5 µM | IC50 (IMR-90): 113 µM | IC50 (HT-29; [3]): 24.8 µM | MIC (Escherichia coli): > 100 µM | MIC (Acinetobacter baumannii): > 100 µM

[C-]#[N+]C1=C2c3c[nH]c4cccc(c34)C(C)(C)[C@H]2CC[C@]1(C)C=C (relative stereo)
MIC (Staphylococcus aureus): > 100 µM | MIC [1]: > 100 µM | IC50 (Vero): > 100 µM | MIC [2]: > 100 µM | MIC (Candida albicans): > 100 µM | MIC (Escherichia coli): > 100 µM | MIC (Acinetobacter baumannii): > 100 µM

C=C[C@]1(C)CC2C(=O)c3c(NC=O)cccc3C(C)(C)[C@H]2C[C@H]1O (relative stereo)
MIC (Staphylococcus aureus): > 100 µM | MIC [1]: > 100 µM | IC50 (Vero): > 100 µM | IC50 (MCF7): > 100 µM | MIC [2]: > 100 µM | IC50 (NCI-H460): > 100 µM | MIC (Candida albicans): > 100 µM | IC50 (SF-268): > 100 µM | IC50 (IMR-90): > 100 µM | IC50 (HT-29; ht-29): Not Active | MIC (Escherichia coli): > 100 µM | MIC (Acinetobacter baumannii): > 100 µM

C[C@@H]1[C@H](O)[C@@H](C)/C=C/C=C/C=C/C=C/C=C/C=C/C=C/[C@H](O[C@@H]2O[C@H](C)[C@@H](O)[C@H](N)[C@@H]2O)C[C@@H]2O[C@](O)(C[C@@H](O)C[C@@H](O)[C@H](O)CC[C@@H](O)C[C@@H](O)CC(=O)O[C@H]1C)C[C@H](O)[C@H]2C(=O)O [AMPHOTERICIN B]
MIC (Candida albicans): 0.12 µM (≈ 0.111 µg/mL)

CC1(C)S[C@@H]2[C@H](NC(=O)[C@H](N)c3ccccc3)C(=O)N2[C@H]1C(=O)O [AMPICILLIN]
MIC (Staphylococcus aureus): 1.54 µM (≈ 0.538 µg/mL)

[C-]#[N+][C@@H]1C2=C3C(=O)Nc4cccc(c43)C(C)(C)[C@H]2C[C@@H](Cl)[C@]1(C)C=C [ANHYDROHAPALOXINDOLE A]
MIC (Staphylococcus aureus): 27.3 µM (≈ 9.63 µg/mL) | MIC [1]: > 100 µM | IC50 (MCF7): 56.7 µM | MIC [2]: 16.2 µM (≈ 5.72 µg/mL) | IC50 (NCI-H460): 18.7 µM | MIC (Candida albicans): 1.9 µM (≈ 0.67 µg/mL) | IC50 (SF-268): 26 µM | IC50 (IMR-90): 80.1 µM | MIC (Escherichia coli): > 100 µM | MIC (Acinetobacter baumannii): > 100 µM

CC[C@@]1(O)C(=O)OCc2c1cc1n(c2=O)Cc2cc3ccccc3nc2-1 [CAMPTOTHECIN]
IC50 (MCF7): 0.08 µM | IC50 (NCI-H460): 0.002 µM | IC50 (SF-268): 0.07 µM | IC50 (IMR-90): 0.43 µM

C[C@H]1c2cccc(O)c2C(=O)C2=C(O)[C@]3(O)C(=O)C(C(N)=O)=C(O)[C@@H](N(C)C)[C@@H]3[C@@H](O)[C@@H]21 [DOXYCYCLINE]
MIC (Acinetobacter baumannii): 0.35 µM (≈ 0.156 µg/mL)

CCCCCC#CC#C/C=C/CCCC[C@H]1C[C@@H](C)C(=O)N1 [FISCHERELLIN B]
MIC (Staphylococcus aureus): > 100 µM | MIC [1]: > 100 µM | IC50 (Vero): > 100 µM | MIC [2]: 23 µM (≈ 6.89 µg/mL) | MIC (Candida albicans): > 100 µM | MIC (Escherichia coli): > 100 µM | MIC (Acinetobacter baumannii): > 100 µM

[C-]#[N+][C@@H]1[C@H]2c3c([nH]c4ccccc34)C(C)(C)[C@H]2C[C@@H](Cl)[C@@]1(C)C=C [FISCHERINDOLE L]
MIC (Staphylococcus aureus): 6.4 µM (≈ 2.17 µg/mL) | MIC [1]: 63 µM (≈ 21.3 µg/mL) | IC50 (Vero): < 9.2 µM | IC50 (MCF7): 28.3 µM | MIC [2]: 22 µM (≈ 7.46 µg/mL) | IC50 (NCI-H460): 15.1 µM | MIC (Candida albicans): 1.2 µM (≈ 0.407 µg/mL) | IC50 (SF-268): 17.4 µM | IC50 (IMR-90): 46.3 µM | MIC (Escherichia coli): > 100 µM | MIC (Acinetobacter baumannii): > 100 µM

[C-]#[N+][C@@H]1[C@H]2c3c[nH]c4cccc(c34)C(C)(C)[C@H]2C[C@@H](Cl)[C@]1(C)C=C [HAPALINDOLE A]
MIC (Staphylococcus aureus): 3.9 µM (≈ 1.32 µg/mL) | MIC [1]: 18.2 µM (≈ 6.17 µg/mL) | IC50 (Vero): 25.6 µM | IC50 (MCF7): 30.7 µM | MIC [2]: < 0.6 µM | IC50 (NCI-H460): 17 µM | MIC (Candida albicans): 1.2 µM (≈ 0.407 µg/mL) | IC50 (SF-268): 16.3 µM | IC50 (IMR-90): 39.1 µM | MIC (Escherichia coli): 8 µM (≈ 2.71 µg/mL) | MIC (Acinetobacter baumannii): > 100 µM

[C-]#[N+][C@@H]1[C@H](c2c[nH]c3ccccc23)[C@@H](C(=C)C)CC[C@]1(C)C=C [HAPALINDOLE C]
inhibition (Homo sapiens): inactive | IC50 (MCF7): > 100 µM | IC50 (NCI-H460): 53.7 µM | IC50 (SF-268): 88.6 µM | IC50 (IMR-90): > 100 µM

[C-]#[N+][C@@H]1[C@H]2c3c[nH]c4cccc(c34)C(C)(C)[C@@H]2CC[C@]1(C)C=C [HAPALINDOLE H]
IC50 (MCF7): 16.3 µM | IC50 (NCI-H460): 8.5 µM | IC50 (SF-268): 10.6 µM | IC50 (IMR-90): 31.9 µM

[C-]#[N+]C1=C2c3c[nH]c4cccc(c34)C(C)(C)[C@H]2C[C@@H](Cl)[C@]1(C)C=C [HAPALINDOLE I]
MIC (Staphylococcus aureus): > 100 µM | MIC [1]: > 100 µM | IC50 (Vero): > 100 µM | IC50 (MCF7): > 100 µM | MIC [2]: 2 µM (≈ 0.674 µg/mL) | IC50 (NCI-H460): 68.5 µM | MIC (Candida albicans): > 100 µM | IC50 (SF-268): 93.1 µM | IC50 (IMR-90): > 100 µM | IC50 (HT-29; ht-29): Not Active | MIC (Escherichia coli): > 100 µM | MIC (Acinetobacter baumannii): > 100 µM

[C-]#[N+][C@@H]1[C@H]2c3c[nH]c4cccc(c34)C(C)(C)[C@H]2CC[C@]1(C)C=C [HAPALINDOLE J]
MIC (Staphylococcus aureus): 8.4 µM (≈ 2.56 µg/mL) | MIC [1]: 39 µM (≈ 11.9 µg/mL) | IC50 (MCF7): 43.7 µM | MIC [2]: 4.3 µM (≈ 1.31 µg/mL) | IC50 (NCI-H460): 12 µM | MIC (Candida albicans): 0.7 µM (≈ 0.213 µg/mL) | IC50 (SF-268): 16.9 µM | IC50 (IMR-90): 39.1 µM | IC50 (HT-29; [3]): 28.6 µM | MIC (Escherichia coli): > 100 µM | MIC (Acinetobacter baumannii): > 100 µM

[C-]#[N+][C@@H]1[C@@H]2c3c[nH]c4cccc(c34)C(C)(C)[C@H]2CC[C@]1(C)C=C [HAPALINDOLE U]
IC50 (MCF7): > 100 µM | IC50 (NCI-H460): > 100 µM | IC50 (SF-268): > 100 µM | IC50 (IMR-90): > 100 µM | IC50 (HT-29; [3]): 52.6 µM

CO[C@H]1/C=C/O[C@@]2(C)Oc3c(C)c(O)c4c(O)c(c(/C=N/N5CCN(C)CC5)c(O)c4c3C2=O)NC(=O)/C(C)=C\C=C\[C@H](C)[C@H](O)[C@@H](C)[C@@H](O)[C@@H](C)[C@H](OC(C)=O)[C@@H]1C [RIFAMPIN]
MIC [2]: 0.24 µM (≈ 0.198 µg/mL)

CN[C@@H]1[C@H](O[C@H]2[C@H](O[C@H]3[C@H](O)[C@@H](O)[C@H](N=C(N)N)[C@@H](O)[C@@H]3N=C(N)N)O[C@@H](C)[C@]2(O)C=O)O[C@@H](CO)[C@H](O)[C@H]1O [STREPTOMYCIN]
MIC [1]: 0.41 µM (≈ 0.238 µg/mL)

GENTAMICIN
MIC (Escherichia coli): 2.3 µM
